Reference: US20040220121A1, “Methods for drug delivery” (priority 2003, published 2004)

Experiments:
[1] = tested on: JJ5 Breast Cancer cells; experiment: Growth inhibition assay of EGF-111In-labeled transferrin composition against JJ5 breast cancer cells; format: cell-based, human; settings: 3.5 pCi/cell, cultured 4 days
Protocol: JJ5 breast cancer cells (prepared from BCBM JJ5) expressing approximately 10^6 epidermal growth factor receptors/cell were incubated with EGF-^111In-labeled transferrin composition, unlabeled hEGF or ^111In-oxine, centrifuged to remove free ligand, then assayed and seeded ([…]) into 35 mm culture dishes. Growth medium was added and the cells were cultured at 37° C./5% CO^2 for 4 days. The cells were then recovered by trypsinization and counted in a hemocytometer. Control dishes contained cells cultured in growth medium containing ^111In-DTPA or growth medium alone.

[2] = tested on: JJ5 Breast Cancer cells; settings: in vitro
Protocol: The EGF-^111In-labeled transferrin (0.25-80 ng) was incubated with 1.5×10^6 cells/dish JJ5 Breast Cancer (prepared from BCBM JJ5) cells in 1 mL of 0.1% human serum albumin in 35 mm multiwell culture dishes at 37° C. for 30 minutes. The cells were transferred to a centrifuge tube and centrifuged. The cell pellet was separated from the supernatant and counted in a g-scintillation counter to determine bound (B) and free (F) radioactivity. Non-specific binding was determined by conducting the assay in 100 nM hEGF. […] Internalized fraction was measured by determining the proportion of radioactivity which could not be displaced from the cell surface by 100 nM hEGF. Cell-associated binding (surface-binding and intracellular accumulation) was expressed as a percentage of medium radioactivity bound per mg of cell study protein.

Compound	growth inhibition of the JJ5 cells [1] [%]	retained by the breast cancer cells ([2]; 37° C.)	111In radioactivity lost from the cells ([2]; over a 24 hour period at 37° C.) [%]
[In+3].[O-]c1cccc2cccnc12.[O-]c1cccc2cccnc12.[O-]c1cccc2cccnc12 [^111In-oxine]	91		
EGF-^111In-labeled transferrin composition: human EGF linked via PEG3400-biotin or peptide linker to streptavidin-transferrin, transferrin labeled with 111In		at least 24 hours	< 8
